Laboratory results from the supplement of paper PMC10307832.

Assays:
Test in all cases: relative viability (nuclei count vs DMSO), 5 days (fraction); higher = more cells survive
NCI-H2087 = system: NCI-H2087
Outline: (§1)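 Cells from lung cancer lines were seeded into 1536-well plates and, one day later, dosed by pin tool. Treatments were either a single drug or a fixed dose of an anchor drug with five library-drug doses (not always all listed) in √10 steps. After 5 days, nuclei were stained in a one-step fixation (final 0.05% Triton X-100, 1% formaldehyde, 1 ug/ml Hoechst) and counted on 4× images, and relative viability is the treated-to-vehicle nuclei ratio, as the median of duplicate plates.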

HCC-827 = system: HCC-827
Outline: as §1

NCI-H1944 = system: NCI-H1944
Outline: as §1

NCI-H727 = system: NCI-H727
Outline: as §1

201T = system: 201T
Outline: as §1

NCI-H647 = system: NCI-H647
Outline: as §1

NCI-H322M = system: NCI-H322M
Outline: as §1

RERF-LC-KJ = system: RERF-LC-KJ
Outline: as §1

NCI-H1792 = system: NCI-H1792
Outline: as §1

NCI-H2405 = system: NCI-H2405
Outline: as §1

LCLC-103H = system: LCLC-103H
Outline: as §1

NCI-H1437 = system: NCI-H1437
Outline: as §1

LCLC-97TM1 = system: LCLC-97TM1
Outline: as §1

LXF-289 = system: LXF-289
Outline: as §1

CAL-12T = system: CAL-12T
Outline: as §1

BEN = system: BEN
Outline: as §1

NCI-H1395 = system: NCI-H1395
Outline: as §1

NCI-H1793 = system: NCI-H1793
Outline: as §1

NCI-H3122 = system: NCI-H3122
Outline: as §1

`CC(=O)O[C@@]12CO[C@@H]1C[C@H](O)[C@@]1(C)C(=O)[C@H](O)C3=C(C)[C@@H](OC(=O)[C@H](O)[C@@H](NC(=O)OC(C)(C)C)c4ccccc4)C[C@@](O)([C@@H](OC(=O)c4ccccc4)[C@H]21)C3(C)C` [Docetaxel] + NC(=O)Nc1cc(-c2cccc(F)c2)sc1C(=O)N[C@H]1CCCNC1 [AZD7762] (partner 0.2 µM) gave a relative viability (NCI-H2087; first compound 0.0002 µM) of 1.23, a relative viability (NCI-H2087; first compound 0.000632 µM) of 0.822 and a relative viability (NCI-H2087; first compound 0.002 µM) of 0.203. The relative viability (NCI-H2087; first compound 0.006325 µM) was 0.236, the relative viability (NCI-H2087; first compound 0.02 µM) was 0.108 and the relative viability (HCC-827; first compound 0.0002 µM) was 0.154. For the same molecule, the relative viability (HCC-827; first compound 0.000632 µM) was 0.239, the relative viability (HCC-827; first compound 0.002 µM) was 0.165 and the relative viability (HCC-827; first compound 0.006325 µM) was 0.165. For the same molecule, the relative viability (HCC-827; first compound 0.02 µM) was 0.142, the relative viability (NCI-H1944; first compound 0.0002 µM) was 0.667 and the relative viability (NCI-H1944; first compound 0.000632 µM) was 0.476. It also gave a relative viability (NCI-H1944; first compound 0.002 µM) of 0.339, a relative viability (NCI-H1944; first compound 0.006325 µM) of 0.25 and a relative viability (NCI-H1944; first compound 0.02 µM) of 0.102. For the same molecule, the relative viability (NCI-H727; first compound 0.0002 µM) was 0.482, the relative viability (NCI-H727; first compound 0.000632 µM) was 0.537 and the relative viability (NCI-H727; first compound 0.002 µM) was 0.503. For the same molecule, the relative viability (NCI-H727; first compound 0.006325 µM) was 0.452, the relative viability (NCI-H727; first compound 0.02 µM) was 0.381 and the relative viability (201T; first compound 0.0002 µM) was 0.528. The relative viability (201T; first compound 0.000632 µM) was 0.623, the relative viability (201T; first compound 0.002 µM) was 0.481 and the relative viability (201T; first compound 0.006325 µM) was 0.388. It also gave a relative viability (201T; first compound 0.02 µM) of 0.246, a relative viability (NCI-H647; first compound 0.0002 µM) of 0.297 and a relative viability (NCI-H647; first compound 0.000632 µM) of 0.217. For the same molecule, the relative viability (NCI-H647; first compound 0.002 µM) was 0.0746, the relative viability (NCI-H647; first compound 0.006325 µM) was 0.0816 and the relative viability (NCI-H647; first compound 0.02 µM) was 0.0266. For the same molecule, the relative viability (NCI-H322M; first compound 0.0002 µM) was 0.611, the relative viability (NCI-H322M; first compound 0.000632 µM) was 0.459 and the relative viability (NCI-H322M; first compound 0.002 µM) was 0.451. For the same molecule, the relative viability (NCI-H322M; first compound 0.006325 µM) was 0.509, the relative viability (NCI-H322M; first compound 0.02 µM) was 0.39 and the relative viability (RERF-LC-KJ; first compound 0.0002 µM) was 0.5. It also gave a relative viability (RERF-LC-KJ; first compound 0.000632 µM) of 1.01, a relative viability (RERF-LC-KJ; first compound 0.002 µM) of 0.363 and a relative viability (RERF-LC-KJ; first compound 0.006325 µM) of 0.196. It also gave a relative viability (RERF-LC-KJ; first compound 0.02 µM) of 0.128, a relative viability (NCI-H1792; first compound 0.0002 µM) of 0.666 and a relative viability (NCI-H1792; first compound 0.000632 µM) of 0.465. The relative viability (NCI-H1792; first compound 0.002 µM) was 0.24, the relative viability (NCI-H1792; first compound 0.006325 µM) was 0.0705 and the relative viability (NCI-H1792; first compound 0.02 µM) was 0.0512. It also gave a relative viability (NCI-H2405; first compound 0.0002 µM) of 0.742, a relative viability (NCI-H2405; first compound 0.000632 µM) of 0.582 and a relative viability (NCI-H2405; first compound 0.002 µM) of 0.46. The relative viability (NCI-H2405; first compound 0.006325 µM) was 0.349, the relative viability (NCI-H2405; first compound 0.02 µM) was 0.248 and the relative viability (LCLC-103H; first compound 0.0002 µM) was 0.771. The relative viability (LCLC-103H; first compound 0.000632 µM) was 0.826, the relative viability (LCLC-103H; first compound 0.002 µM) was 0.654 and the relative viability (LCLC-103H; first compound 0.006325 µM) was 0.508. For the same molecule, the relative viability (LCLC-103H; first compound 0.02 µM) was 0.372, the relative viability (NCI-H1437; first compound 0.0002 µM) was 1.08 and the relative viability (NCI-H1437; first compound 0.000632 µM) was 1.12. It also gave a relative viability (NCI-H1437; first compound 0.002 µM) of 0.616, a relative viability (NCI-H1437; first compound 0.006325 µM) of 0.281 and a relative viability (NCI-H1437; first compound 0.02 µM) of 0.141. The relative viability (LCLC-97TM1; first compound 0.0002 µM) was 0.194, the relative viability (LCLC-97TM1; first compound 0.000632 µM) was 0.221 and the relative viability (LCLC-97TM1; first compound 0.002 µM) was 0.078. For the same molecule, the relative viability (LCLC-97TM1; first compound 0.006325 µM) was 0.0825, the relative viability (LCLC-97TM1; first compound 0.02 µM) was 0.0475 and the relative viability (LXF-289; first compound 0.0002 µM) was 1.1. It also gave a relative viability (LXF-289; first compound 0.000632 µM) of 0.664, a relative viability (LXF-289; first compound 0.002 µM) of 0.346 and a relative viability (LXF-289; first compound 0.006325 µM) of 0.129. It also gave a relative viability (LXF-289; first compound 0.02 µM) of 0.0873, a relative viability (CAL-12T; first compound 0.0002 µM) of 0.595 and a relative viability (CAL-12T; first compound 0.000632 µM) of 0.452. It also gave a relative viability (CAL-12T; first compound 0.002 µM) of 0.491, a relative viability (CAL-12T; first compound 0.02 µM) of 0.176 and a relative viability (BEN; first compound 0.0002 µM) of 0.553. For the same molecule, the relative viability (BEN; first compound 0.000632 µM) was 0.822, the relative viability (BEN; first compound 0.002 µM) was 0.483 and the relative viability (BEN; first compound 0.006325 µM) was 0.412. It also gave a relative viability (BEN; first compound 0.02 µM) of 0.307, a relative viability (NCI-H1395; first compound 0.0002 µM) of 0.421 and a relative viability (NCI-H1395; first compound 0.000632 µM) of 0.38. For the same molecule, the relative viability (NCI-H1395; first compound 0.002 µM) was 0.379, the relative viability (NCI-H1395; first compound 0.006325 µM) was 0.343 and the relative viability (NCI-H1395; first compound 0.02 µM) was 0.32. It also gave a relative viability (NCI-H1793; first compound 0.0002 µM) of 0.369, a relative viability (NCI-H1793; first compound 0.000632 µM) of 0.381 and a relative viability (NCI-H1793; first compound 0.002 µM) of 0.299. It also gave a relative viability (NCI-H1793; first compound 0.006325 µM) of 0.204, a relative viability (NCI-H1793; first compound 0.02 µM) of 0.144 and a relative viability (NCI-H3122; first compound 0.0002 µM) of 0.939. The relative viability (NCI-H3122; first compound 0.000632 µM) was 0.818, the relative viability (NCI-H3122; first compound 0.002 µM) was 0.843 and the relative viability (NCI-H3122; first compound 0.006325 µM) was 0.171. The relative viability (NCI-H3122; first compound 0.02 µM) was 0.121.
